From patent publication US8802674B2, “Aminopyrimidine derivatives as LRRK2 modulators” (Genentech, Inc., priority 2011, dated 2014) come the findings set out here.

For this assay, the target named is LRRK2 (Homo sapiens (Human), UniProt Q5S007, G2019S). Briefly: In Vitro LRRK2 LabChip Assay. In kind it is biochemical. The settings on record: Table 6. A digest of the protocol: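 Potency (Ki in μM, IC50 or % inhibition) derived from capillary-electrophoresis separation of phospho- and unphosphorylated fluorescent peptide, with Ki fitted by a tight-binding model.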
Sequence of LRRK2 (Q5S007 970-2527 G2019S limits assumed): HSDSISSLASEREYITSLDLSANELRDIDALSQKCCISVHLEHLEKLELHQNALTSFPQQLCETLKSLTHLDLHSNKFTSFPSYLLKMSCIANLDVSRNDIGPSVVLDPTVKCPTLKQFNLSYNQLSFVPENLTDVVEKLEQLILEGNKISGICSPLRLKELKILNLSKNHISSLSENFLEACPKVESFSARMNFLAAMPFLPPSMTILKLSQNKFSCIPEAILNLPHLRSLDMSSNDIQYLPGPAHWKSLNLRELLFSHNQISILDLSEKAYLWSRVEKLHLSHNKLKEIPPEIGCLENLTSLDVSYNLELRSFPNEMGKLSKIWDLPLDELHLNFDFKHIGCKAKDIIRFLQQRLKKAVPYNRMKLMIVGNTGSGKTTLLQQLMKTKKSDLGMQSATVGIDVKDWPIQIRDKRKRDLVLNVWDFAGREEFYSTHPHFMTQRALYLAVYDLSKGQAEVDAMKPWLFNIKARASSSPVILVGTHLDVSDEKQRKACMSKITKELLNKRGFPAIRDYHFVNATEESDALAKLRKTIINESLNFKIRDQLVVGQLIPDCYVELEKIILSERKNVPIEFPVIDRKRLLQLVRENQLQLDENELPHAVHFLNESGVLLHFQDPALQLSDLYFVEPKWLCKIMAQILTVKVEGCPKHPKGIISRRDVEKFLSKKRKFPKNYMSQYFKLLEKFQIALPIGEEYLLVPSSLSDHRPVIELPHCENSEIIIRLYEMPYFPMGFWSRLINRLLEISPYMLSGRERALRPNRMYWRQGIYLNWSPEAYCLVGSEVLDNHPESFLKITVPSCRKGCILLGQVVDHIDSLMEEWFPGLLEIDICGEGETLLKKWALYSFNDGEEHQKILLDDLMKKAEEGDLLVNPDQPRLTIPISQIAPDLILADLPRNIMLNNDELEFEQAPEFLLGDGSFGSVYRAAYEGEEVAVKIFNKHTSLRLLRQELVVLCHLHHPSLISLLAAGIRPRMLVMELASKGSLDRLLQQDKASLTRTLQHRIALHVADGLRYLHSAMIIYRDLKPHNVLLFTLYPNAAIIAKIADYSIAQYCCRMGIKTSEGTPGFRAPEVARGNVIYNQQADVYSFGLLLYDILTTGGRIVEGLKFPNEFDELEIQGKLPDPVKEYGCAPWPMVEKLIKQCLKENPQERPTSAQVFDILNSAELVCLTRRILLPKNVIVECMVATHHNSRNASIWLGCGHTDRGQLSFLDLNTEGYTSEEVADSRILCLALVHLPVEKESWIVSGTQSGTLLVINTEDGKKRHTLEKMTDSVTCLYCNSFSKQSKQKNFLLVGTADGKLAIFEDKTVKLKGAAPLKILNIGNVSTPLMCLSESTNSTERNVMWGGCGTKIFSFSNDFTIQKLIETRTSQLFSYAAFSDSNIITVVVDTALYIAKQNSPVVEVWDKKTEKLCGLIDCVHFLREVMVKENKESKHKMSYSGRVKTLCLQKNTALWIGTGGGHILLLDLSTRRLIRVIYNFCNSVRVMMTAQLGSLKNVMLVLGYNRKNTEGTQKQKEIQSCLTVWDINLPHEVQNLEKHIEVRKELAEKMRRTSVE
Regarding `CNc1nc(Nc2ccc(C(=O)N3CCOCC3)cc2OC2CCC2)ncc1C(F)(F)F` [Example 269, [3-Cyclobutoxy-4-(4-methylamino-5-trifluoromethyl-pyrimidin-2-ylamino)-phenyl]-morpholin-4-yl-methanone], the Ki came to 2.5 nM.
`CNc1nc(Nc2ccc(C(=O)NC3COC3)cc2OC)ncc1C(F)(F)F` [Example 271, 3-Methoxy-4-(4-methylamino-5-trifluoromethyl-pyrimidin-2-ylamino)-N-oxetan-3-yl-benzamide] showed an inhibition constant Ki of 3.7 nM.
The molecule `CNc1nc(Nc2ccc(C(=O)N3CC4CCC(C3)O4)cc2OC)ncc1C(F)(F)F` [Example 272, [3-Methoxy-4-(4-methylamino-5-trifluoromethyl-pyrimidin-2-ylamino)-phenyl]-(8-oxa-3-aza-bicyclo[3.2.1]oct-3-yl)-methanone] yielded a Ki of 1.7 nM.
For `CNc1nc(Nc2ccc(C(=O)N3CCCC3)cc2OC)ncc1C(F)(F)F` [Example 274, [3-Methoxy-4-(4-methylamino-5-trifluoromethyl-pyrimidin-2-ylamino)-phenyl]-pyrrolidin-1-yl-methanone], the affinity, expressed as Ki, was 4.1 nM.
Molecule `CCN(CC)C(=O)c1ccc(Nc2ncc(C(F)(F)F)c(NC)n2)c(OC)c1` [Example 275, N,N-Diethyl-3-methoxy-4-(4-methylamino-5-trifluoromethyl-pyrimidin-2-ylamino)-benzamide] yielded a Ki of 3.3 nM.
For `CNc1nc(Nc2ccc(C(=O)N3CCC(N(C)C)CC3)cc2OC)ncc1C(F)(F)F` [Example 276, (4-Dimethylamino-piperidin-1-yl)-[3-methoxy-4-(4-methylamino-5-trifluoromethyl-pyrimidin-2-ylamino)-phenyl]-methanone], the Ki was found to be 0.8 nM.
`CNc1nc(Nc2ccc(C(=O)N3CC(C)OC(C)C3)cc2OC)ncc1C(F)(F)F` (stereo not shown) [Example 277, (2,6-Dimethyl-morpholin-4-yl)-[3-methoxy-4-(4-methylamino-5-trifluoromethyl-pyrimidin-2-ylamino)-phenyl]-methanone] came in with a Ki of 4.9 nM.
The molecule `CNc1nc(Nc2ccc(C(=O)N3CCC(C#N)CC3)cc2OC)ncc1C(F)(F)F` [Example 278, 1-[3-Methoxy-4-(4-methylamino-5-trifluoromethyl-pyrimidin-2-ylamino)-benzoyl]-piperidine-4-carbonitrile] showed a Ki of 1.7 nM.
`CNc1nc(Nc2ccc(C(=O)N3CCN(CC(F)(F)F)CC3)cc2OC)ncc1C(F)(F)F` [Example 279, [3-Methoxy-4-(4-methylamino-5-trifluoromethyl-pyrimidin-2-ylamino)-phenyl]-[4-(2,2,2-trifluoro-ethyl)-piperazin-1-yl]-methanone] had a Ki of 2 nM.
As for `CNc1nc(Nc2ccc(C(=O)N3CCC(OC)CC3)cc2OC)ncc1C(F)(F)F` [Example 280, [3-Methoxy-4-(4-methylamino-5-trifluoromethyl-pyrimidin-2-ylamino)-phenyl]-(4-methoxy-piperidin-1-yl)-methanone], affinity was put at a Ki of 1.6 nM.
For the molecule `CNc1nc(Nc2ccc(C(=O)NCCOC)cc2OC)ncc1C(F)(F)F` [Example 281, 3-Methoxy-N-(2-methoxy-ethyl)-4-(4-methylamino-5-trifluoromethyl-pyrimidin-2-ylamino)-benzamide], the affinity corresponds to a Ki of 2.3 nM.
As for `CNc1nc(Nc2ccc(C(=O)NC3CCN(C)CC3)cc2OC)ncc1C(F)(F)F` [Example 282, 3-Methoxy-4-(4-methylamino-5-trifluoromethyl-pyrimidin-2-ylamino)-N-(1-methyl-piperidin-4-yl)-benzamide], the figure is 0.6 nM.
Consider `CNc1nc(Nc2ccc(C(=O)NC3CCC(F)(F)CC3)cc2OC)ncc1C(F)(F)F` [Example 283, N-(4,4-Difluoro-cyclohexyl)-3-methoxy-4-(4-methylamino-5-trifluoromethyl-pyrimidin-2-ylamino)-benzamide], for which the Ki was found to be 1.1 nM.
`CNc1nc(Nc2ccc(C(=O)N3CCOCC3)cc2OC2COC2)ncc1Cl` [Example 284, [4-(5-Chloro-4-methylamino-pyrimidin-2-ylamino)-3-(oxetan-3-yloxy)-phenyl]-morpholin-4-yl-methanone] registered a Ki of 12.8 nM.
`CNc1nc(Nc2ccc(C(=O)N3CCOCC3)cc2OCC2CC2)ncc1C(F)(F)F` [Example 285, [3-Cyclopropyl-methoxy-4-(4-methylamino-5-trifluoromethyl-pyrimidin-2-ylamino)-phenyl]-morpholin-4-yl-methanone]: the Ki is 6.5 nM.
As for `CNc1nc(Nc2ccc(C(=O)N3CCOCC3)cc2OCC2CCC2)ncc1C(F)(F)F` [Example 286, [3-Cyclobutyl-methoxy-4-(4-methylamino-5-trifluoromethyl-pyrimidin-2-ylamino)-phenyl]-morpholin-4-yl-methanone], the figure is 5.2 nM.
For `CNc1nc(Nc2cc(OC)c(C(=O)N3CCOCC3)cc2Cl)ncc1Br` [Example 288, [4-(5-Bromo-4-methylamino-pyrimidin-2-ylamino)-5-chloro-2-methoxy-phenyl]-morpholin-4-yl-methanone], the affinity, expressed as Ki, was 2.6 nM.
Turning to `CNc1nc(Nc2ccc(C(=O)N3CCOCC3)cc2C2CC2)ncc1C(F)(F)F` [Example 289, [3-Cyclopropyl-4-(4-methylamino-5-trifluoromethyl-pyrimidin-2-ylamino)-phenyl]-morpholin-4-yl-methanone], the affinity, expressed as Ki, was 20 nM.
On to `CNc1nc(Nc2ccc(C(=O)N3CCOCC3)cc2Br)ncc1C(F)(F)F` [Example 290, [3-Bromo-4-(4-methylamino-5-trifluoromethyl-pyrimidin-2-ylamino)-phenyl]-morpholin-4-yl-methanone], for which the Ki amounted to 7.5 nM.
For `CNc1nc(Nc2ccc(C(=O)N3CCOCC3)cc2Cl)ncc1C(F)(F)F` [Example 291, [3-Chloro-4-(4-methylamino-5-trifluoromethyl-pyrimidin-2-ylamino)-phenyl]-morpholin-4-yl-methanone], the affinity, expressed as Ki, was 17 nM.
`CNc1nc(Nc2cc(Cl)c(C(=O)N3CCOCC3)cc2OC)ncc1C(F)(F)F` [Example 292, [2-Chloro-5-methoxy-4-(4-methylamino-5-trifluoromethyl-pyrimidin-2-ylamino)-phenyl]-morpholin-4-yl-methanone] displayed a Ki of 2 nM.
`CNc1nc(Nc2cc(Cl)c(C(=O)N3CCOCC3)cc2OC)ncc1Cl` [Example 293, [2-Chloro-4-(5-chloro-4-methylamino-pyrimidin-2-ylamino)-5-methoxy-phenyl]-morpholin-4-yl-methanone] gave a Ki of 2.7 nM.
`COc1cc(C(=O)N2CCOCC2)c(Cl)cc1Nc1ncc(Br)c(OC)n1` [Example 294, [4-(5-Bromo-4-methoxy-pyrimidin-2-ylamino)-2-chloro-5-methoxy-phenyl]-morpholin-4-yl-methanone] had a Ki of 9.4 nM.
Molecule `CNc1nc(Nc2cc(OC)c(C(=O)N3CCOCC3)cc2Cl)ncc1Cl` [Example 295, (5-chloro-4-(5-chloro-4-(methyl-amino)pyrimidin-2-ylamino)-2-methoxy-phenyl)(morpholino) methanone] had a Ki of 6 nM.
As for `CNc1nc(Nc2cc(OC)c(C(=O)N3CCOCC3)cc2Cl)ncc1C(F)(F)F` [Example 296, [5-Chloro-2-methoxy-4-(4-methylamino-5-trifluoromethyl-pyrimidin-2-ylamino)-phenyl]-morpholin-4-yl-methanone], the figure is 2 nM.

What is called Ki is the equilibrium dissociation constant of an inhibitor or competing ligand from its target. Low values mean tighter binding, high ones weaker binding.
